Where a SMILES comes first, the peptide text is derived from it. Bridges are numbered along the chain shown (N, C = ends). [ ]: non-standard residue; d: D form. Nle = CCCC[C@H](N)C(=O)O; Abu = CC[C@H](N)C(=O)O

For the assay, the target named is Rat whole blood (Rattus norvegicus, UniProt P15384). It counts as cell-based. To be noted: IL-17A release, thapsigargin, 24 Hr, at least 2 replicates.
Rat whole blood, sequence (P15384 whole entry): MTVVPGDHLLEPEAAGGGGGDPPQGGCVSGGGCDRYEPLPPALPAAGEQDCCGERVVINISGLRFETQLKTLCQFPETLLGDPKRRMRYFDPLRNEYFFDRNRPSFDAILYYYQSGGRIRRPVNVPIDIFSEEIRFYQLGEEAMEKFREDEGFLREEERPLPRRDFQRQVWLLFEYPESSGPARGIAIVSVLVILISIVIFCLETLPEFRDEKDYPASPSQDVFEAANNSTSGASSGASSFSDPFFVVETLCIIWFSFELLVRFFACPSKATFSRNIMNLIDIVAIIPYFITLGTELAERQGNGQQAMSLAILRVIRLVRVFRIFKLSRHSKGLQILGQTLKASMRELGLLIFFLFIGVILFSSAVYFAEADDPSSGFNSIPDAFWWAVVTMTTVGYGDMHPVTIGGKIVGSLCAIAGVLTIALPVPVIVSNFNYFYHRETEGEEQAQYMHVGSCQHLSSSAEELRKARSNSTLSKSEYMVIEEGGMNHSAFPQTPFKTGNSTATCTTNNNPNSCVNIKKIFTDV
The compound “H-S[Nle]D[Nle]RCSASVECKQKCLKAIGSIFGKCMNKKCKC[F(4-CH3)]PR-NH2 [compound 89]” had an IC50 of 540 pM. “H-P[Nle]D[Nle]RCSASVECKQKCLKAIGCIFGKC[Nle]NKKCKCYPC-OH (cysteine pairing not given here) [compound 86]” displayed an IC50 of 1100 pM. This IC50 is about 2-fold higher than that of the compound before.

On to “H-S[Nle]D[Nle]RCSA[Abu]VECKQKCLKAIGSIFGKCMNKKCKCYPR-NH2 (cysteine pairing not given here) [compound 68]”, for which the IC50 stood at 930 pM. With “H-S[Nle]D[Nle]RCSASVECKQKCLKAIGSIFGKC[Nle]NKKCKCYPR-OH (cysteine pairing not given here) [compound 80]” the figure was 520 pM; with “H-P[Nle]E[Nle]RCSASVECKQKCLLAIGSIFGKC[Nle]NKKCKCYPR-OH (cysteine pairing not given here) [compound 93]”, 500 pM. With “H-P[Nle]D[Nle]RCSASVECKEKCL[homo-Gln]AIGSIFGKC[Nle]NKKCKCYPR-NH2 [compound 83]” the figure was 1400 pM; with “NMDMRCSASVECKQKCLKAIGSIFGKCMNKKCVCYPR [compound 42]”, 2800 pM. In turn, “H-N[Nle]D[Nle]RCSASVECQQKCLKAIGSIFGKC[Nle]NKKCKCYPR-NH2 (cysteine pairing not given here) [compound 48]” registered an IC50 of 1100 pM. “H-P[Nle]D[Nle]RCSASVECAQKCLAAIGSIFGKCMNKKCKCYPR-OH (cysteine pairing not given here) [compound 96]” displayed an IC50 of 320 pM. Next, `CCCC[C@@H]1NC(=O)[C@@H]2CSSC[C@H](NC(=O)[C@H](CCCNC(=N)N)NC(=O)[C@H](CCCC)NC(=O)[C@H](CC(=O)O)NC(=O)[C@H](CCCC)NC(=O)[C@@H](N)C(C)C)C(=O)N[C@@H](CO)C(=O)N[C@@H](C)C(=O)N[C@@H](CO)C(=O)N[C@@H](C(C)C)C(=O)N[C@@H](CCC(=O)O)C(=O)N[C@H]3CSSC[C@H](NC(=O)[C@H](CCCCN)NC(=O)[C@H](CCCCN)NC(=O)[C@H](CC(N)=O)NC1=O)C(=O)N[C@@H](CCCCN)C(=O)N[C@H](C(=O)N[C@@H](Cc1ccc(O)cc1)C(=O)N1CCC[C@H]1C(=O)N[C@@H](CCCNC(=N)N)C(N)=O)CSSC[C@H](NC(=O)[C@H](CCCCN)NC(=O)[C@H](CCC(N)=O)NC(=O)[C@H](CCCCN)NC3=O)C(=O)N[C@@H](CC(C)C)C(=O)N[C@@H](CCCCN)C(=O)N[C@@H](C)C(=O)N[C@@H]([C@@H](C)CC)C(=O)NCC(=O)N[C@@H](CO)C(=O)N[C@@H]([C@@H](C)CC)C(=O)N[C@@H](Cc1ccccc1)C(=O)NCC(=O)N[C@@H](CCCCN)C(=O)N2` [compound 67] (H-V[Nle]D[Nle]RCSASVECKQKCLKAIGSIFGKC[Nle]NKKCKCYPR-NH2; disulfide 6-27, 12-32, 16-34): 980 pM.

As to “H-S[Nle]D[Nle]RCSASVECKEKCLQAIGSIFGKC[Nle]NKKCKCYPR-NH2 (cysteine pairing not given here) [compound 82]”, the IC50 stood at 690 pM. Next, “LRCSASVECKQKCLAAIGSIFGKCMNKKCKCYPR [compound 105]”: 360 pM.

Turning to “NMDMRCSASVECKQKCLKAIHSIFGKCMNKKCKCYPR [compound 37]”, the IC50 is 700 pM. Take “H-CSASVECKQKCLKAIGCIFGKC[Nle]NKKCKCYPC-NH2 (cysteine pairing not given here) [compound 84]”: it took 1100 pM to reach half-maximal inhibition (IC50). Next, “H-S[Nle]D[Nle]RCSASVECKQKCLKAIGSIFGKCMNKKCKC[F(4-NO2)]PR-NH2 [compound 88]”: 1300 pM; “H-N[Nle]D[Nle]RCSASVECEQKCLKAIGSIFGKC[Nle]NKKCKCYPR-NH2 (cysteine pairing not given here) [compound 47]”: 990 pM. With “H-S[Nle]D[Nle]RCSASVECKQKCLKAIGSIFGKCMNKKCKC[F(4-F)]PR-NH2 [compound 87]” the figure was 340 pM; with “H-PIDERCSASVECKQKCLAAIGSIFGKC[Nle]NKKCKCYPR-OH (cysteine pairing not given here) [compound 94]”, 870 pM; with “H-S[Nle]D[Nle]RCSASVECKQKCLKAIGSIFGKCMNKKCKCYQ-NH2 (cysteine pairing not given here) [compound 74]”, 1600 pM. The compound “H-S[Nle]D[Nle]RCSASVECK[2-Amino-5-carboxypentanoyl]KCLKAIGSIFGKCMNKKCKCYPR-NH2 [compound 73]” came in with an IC50 of 520 pM. With `CCCC[C@H](NC(=O)[C@@H]1CCCN1)C(=O)N[C@@H](CC(=O)O)C(=O)N[C@@H](CCCC)C(=O)N[C@@H](CCCNC(=N)N)C(=O)N[C@H]1CSSC[C@@H]2NC(=O)[C@H](CCCCN)NC(=O)CNC(=O)[C@H](Cc3ccccc3)NC(=O)[C@H]([C@@H](C)CC)NC(=O)[C@@H]3CSSC[C@@H](C(N)=O)NC(=O)[C@@H]4CCCN4C(=O)[C@H](Cc4ccc(O)cc4)NC(=O)[C@@H]4CSSC[C@H](NC(=O)[C@H](CCCCN)NC(=O)[C@H](CCC(N)=O)NC(=O)[C@H](CCCCN)NC(=O)[C@H](CSSC[C@H](NC(=O)[C@H](CCCCN)NC(=O)[C@H](CCCCN)NC(=O)[C@H](CC(N)=O)NC(=O)[C@H](CCCC)NC2=O)C(=O)N[C@@H](CCCCN)C(=O)N4)NC(=O)[C@H](CCC(=O)O)NC(=O)[C@H](C(C)C)NC(=O)[C@H](CO)NC(=O)[C@H](C)NC(=O)[C@H](CO)NC1=O)C(=O)N[C@@H](CC(C)C)C(=O)N[C@@H](CCCCN)C(=O)N[C@@H](C)C(=O)N[C@@H]([C@@H](C)CC)C(=O)NCC(=O)N3` [compound 81] (H-P[Nle]D[Nle]RCSASVECKQKCLKAIGCIFGKC[Nle]NKKCKCYPC-NH2; disulfide 6-27, 12-32, 16-34, 22-37) the figure was 810 pM; with “Ac-LRCSASVECKQKCLAAIGSIFGKC[Nle]NKKCKCYPR-OH (cysteine pairing not given here) [compound 104]”, 900 pM; with `CCCC[C@@H]1NC(=O)[C@@H]2CSSC[C@H](NC(=O)[C@H](CCCNC(=N)N)NC(=O)[C@H](CCCC)NC(=O)[C@H](CC(=O)O)NC(=O)[C@H](CCCC)NC(=O)[C@@H](N)Cc3c[nH]cn3)C(=O)N[C@@H](CO)C(=O)N[C@@H](C)C(=O)N[C@@H](CO)C(=O)N[C@@H](C(C)C)C(=O)N[C@@H](CCC(=O)O)C(=O)N[C@H]3CSSC[C@H](NC(=O)[C@H](CCCCN)NC(=O)[C@H](CCCCN)NC(=O)[C@H](CC(N)=O)NC1=O)C(=O)N[C@@H](CCCCN)C(=O)N[C@H](C(=O)N[C@@H](Cc1ccc(O)cc1)C(=O)N1CCC[C@H]1C(=O)N[C@@H](CCCNC(=N)N)C(N)=O)CSSC[C@H](NC(=O)[C@H](CCCCN)NC(=O)[C@H](CCC(N)=O)NC(=O)[C@H](CCCCN)NC3=O)C(=O)N[C@@H](CC(C)C)C(=O)N[C@@H](CCCCN)C(=O)N[C@@H](C)C(=O)N[C@@H]([C@@H](C)CC)C(=O)NCC(=O)N[C@@H](CO)C(=O)N[C@@H]([C@@H](C)CC)C(=O)N[C@@H](Cc1ccccc1)C(=O)NCC(=O)N[C@@H](CCCCN)C(=O)N2` [compound 64] (H-H[Nle]D[Nle]RCSASVECKQKCLKAIGSIFGKC[Nle]NKKCKCYPR-NH2; disulfide 6-27, 12-32, 16-34), 1200 pM. With `CCCC[C@@H]1NC(=O)[C@@H]2CSSC[C@H](NC(=O)[C@H](CCCNC(=N)N)NC(=O)[C@H](CCCC)NC(=O)[C@H](CC(=O)O)NC(=O)[C@H](CCCC)NC(=O)[C@@H](N)CO)C(=O)N[C@@H](CO)C(=O)N[C@@H](C)C(=O)N[C@@H](CO)C(=O)N[C@@H](C(C)C)C(=O)N[C@@H](CCC(=O)O)C(=O)N[C@H]3CSSC[C@H](NC(=O)[C@H](CCCCN)NC(=O)[C@H](CCCCN)NC(=O)[C@H](CC(N)=O)NC1=O)C(=O)N[C@@H](CCCCN)C(=O)N[C@H](C(=O)N[C@@H](Cc1ccc(O)cc1)C(=O)N1CCC[C@H]1C(=O)N[C@@H](CCCNC(=N)N)C(N)=O)CSSC[C@H](NC(=O)[C@H](CCCCN)NC(=O)[C@H](CCC(N)=O)NC(=O)[C@H](CCCCN)NC3=O)C(=O)N[C@@H](CC(C)C)C(=O)N[C@@H](CCCCN)C(=O)N[C@@H](C)C(=O)N[C@@H]([C@@H](C)CC)C(=O)NCC(=O)N[C@@H](CO)C(=O)N[C@@H]([C@@H](C)CC)C(=O)N[C@@H](Cc1ccccc1)C(=O)NCC(=O)N[C@@H](CCCCN)C(=O)N2` [compound 66] (H-S[Nle]D[Nle]RCSASVECKQKCLKAIGSIFGKC[Nle]NKKCKCYPR-NH2; disulfide 6-27, 12-32, 16-34) the figure was 470 pM. With “H-LRCSASVECKQKCLKAIGSIFGKC[Nle]NKKCKCYPR-OH (cysteine pairing not given here) [compound 103]” the figure was 2100 pM.

Turning to `CCCC[C@@H]1NC(=O)[C@@H]2CSSC[C@H](NC(=O)[C@H](CCCNC(=N)N)NC(=O)[C@H](CCCC)NC(=O)[C@H](CC(=O)O)NC(=O)[C@H](CCCC)NC(=O)[C@@H](N)Cc3ccc(O)cc3)C(=O)N[C@@H](CO)C(=O)N[C@@H](C)C(=O)N[C@@H](CO)C(=O)N[C@@H](C(C)C)C(=O)N[C@@H](CCC(=O)O)C(=O)N[C@H]3CSSC[C@H](NC(=O)[C@H](CCCCN)NC(=O)[C@H](CCCCN)NC(=O)[C@H](CC(N)=O)NC1=O)C(=O)N[C@@H](CCCCN)C(=O)N[C@H](C(=O)N[C@@H](Cc1ccc(O)cc1)C(=O)N1CCC[C@H]1C(=O)N[C@@H](CCCNC(=N)N)C(N)=O)CSSC[C@H](NC(=O)[C@H](CCCCN)NC(=O)[C@H](CCC(N)=O)NC(=O)[C@H](CCCCN)NC3=O)C(=O)N[C@@H](CC(C)C)C(=O)N[C@@H](CCCCN)C(=O)N[C@@H](C)C(=O)N[C@@H]([C@@H](C)CC)C(=O)NCC(=O)N[C@@H](CO)C(=O)N[C@@H]([C@@H](C)CC)C(=O)N[C@@H](Cc1ccccc1)C(=O)NCC(=O)N[C@@H](CCCCN)C(=O)N2` [compound 65] (H-Y[Nle]D[Nle]RCSASVECKQKCLKAIGSIFGKC[Nle]NKKCKCYPR-NH2; disulfide 6-27, 12-32, 16-34), the IC50 turned out to be 1100 pM. With “H-S[Nle]D[Nle]RCSASVECVQKCLKAIGSIFGKCMNKKCKCYPR-NH2 (cysteine pairing not given here) [compound 72]” the figure was 470 pM; with “H-S[Nle]D[Nle]RCSASVECKQKCLKAIGSIFG[homo-Lys]CMNKKCKCYPR-NH2 [compound 69]”, 2700 pM.

The compound “H-S[Nle]D[Nle]RCSASVECKQKCLAAIGCIFGKC[Nle]NKKCKCYPC-NH2 (cysteine pairing not given here) [compound 85]” had an IC50 of 730 pM. Next, “H-S[Nle]D[Nle]RCSASVECKQKCLVAIGSIFGKCMNKKCKCYPR-NH2 (cysteine pairing not given here) [compound 77]”: 390 pM.

The IC50 is the concentration that gives 50% inhibition.

For the origin of these results see patent US20240182531A1, “KV1.3 Blockers” (priority 2021, published 2024).
